Read-outs that look alike come from different tables or passages of the source. Each block holds one compound with its values, some of them ahead of it.
How the values were obtained:
Format in all cases: biochemical
human stromelysin (Sln) = human stromelysin (Sln) (Homo sapiens, UniProt P08254); test: In vitro MMP inhibition assay (hydrolysis of fluorogenic MCA peptide substrate), stromelysin
Protocol: The catalytic domain of human stromelysin (Sln) was obtained by expression and purification of a C-terminally truncated prostromelysin-1 from E. coli host BL21 (see Marcy et al. Biochem., 1991, 30, 6476). The subsequent activation of the mature form (Sln) was completed with 2 mM APMA for 1 hour at 37° C., followed by separation using a sizing column.
(§1) Assays were performed in assay buffer (50 mM Tricine pH 7.5, 200 mM sodium chloride, 10 mM calcium chloride, 0.5 mM zinc acetate containing 2% dimethyl sulfoxide (DMSO)) once the substrate and inhibitor were diluted into it. Stock solutions of inhibitors were prepared in 100% DMSO. Stock solutions of the substrate were prepared in 100% DMSO at a concentration of 6 mM.
(§2) The assay method was based on the hydrolysis of MCA-Pro-Leu-Gly-Leu-DPA-Ala-Arg-NH2 (American Peptide Co.) at 37° C. (see Knight, C. G. et al., FEBS, 1992, 296, 263-266). The fluorescence changes were monitored with a Perkin-Elmer LS-50B fluorimeter using an excitation wavelength of 328 nm and an emission wavelength of 393 nm. The substrate concentration used in the assays was 10 μM. The inhibitor was diluted into the assays from a solution in 100% DMSO, and controls substituted an equal volume of DMSO so that the final DMSO concentration from inhibitor and substrate dilution in all assays was 2%. […] Proper determination of steady-state rates of substrate cleavage required assay lengths of 60 minutes to allow for complete equilibration of the enzyme-inhibitor complex.
(§3) The Km for the MCA peptide substrate with the matrix metalloproteinases is quite high and exceeds its solubility under assay conditions. Consequently, the apparent Ki (Ki,app) was determined to describe the strength of inhibition. However, in this case, Ki,app would be essentially equal to Ki since [S]<<Km. For the determination of Ki,app, the concentration of the inhibitor was varied at a constant and low concentration of substrate and the steady-state rates of fluorescence change determined. In most cases absorptive quench due to the presence of ligand was not observed. For slow-binding inhibitors, onset of inhibition curves were collected for at least 45 minutes so that equilibrium was established. Steady-state rates of fluorescence change were obtained by fitting a curve to an equation for a single exponential decay containing a linear phase. The fitted value of the linear phase was taken as the steady-state rate. The steady-state rates were fitted to the Michaelis equation describing competitive inhibition by non-linear methods. Data resulting from tight-binding inhibition was analyzed, and Ki,app determined by fitting the data to the tight-binding equation of Morrison (Biochem. Biophys. Acta, vol. 185, pp. 269-286 (1969)) by non-linear methods.
(§4) All Ki values are in nM units.

Human matrilysin (Matr) = target: T1, Human matrilysin (Matr) (Homo sapiens, UniProt P09237); test: In vitro MMP inhibition assay (hydrolysis of fluorogenic MCA peptide substrate), matrilysin; settings: Table 1; Ki,app; MCA peptide substrate 10 μM, 37° C., pH 7.5, 2% DMSO; read-out: Matri Ki
T1 construct: catalytic domain liberated with APMA
T1 sequence (P09237 95-267): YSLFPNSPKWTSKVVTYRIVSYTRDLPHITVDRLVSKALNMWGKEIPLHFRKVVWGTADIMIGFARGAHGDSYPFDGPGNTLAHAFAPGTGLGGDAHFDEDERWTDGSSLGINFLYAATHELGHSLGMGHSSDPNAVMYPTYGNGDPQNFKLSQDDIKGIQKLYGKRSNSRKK
Protocol: Human matrilysin (Matr) was expressed in E. coli as a fusion protein with ubiquitin. After purification of the matrilysin/ubiquitin fusion from inclusion bodies, the catalytic domain was liberated by treatment with 2 mM APMA at 37° C. for 2 hours. Final purification was complete using copper chelate chromatography.
as §1, §2, §3, §4

[1] = target: T2, human collagenase-1 (HFC) (Homo sapiens, UniProt P03956); test: In vitro MMP inhibition assay (hydrolysis of fluorogenic MCA peptide substrate), fibroblast collagenase-1; settings: Table 1; Ki,app; MCA peptide substrate 10 μM, 37° C., pH 7.5, 2% DMSO
T2 sequence (P03956 100-269 limits assumed): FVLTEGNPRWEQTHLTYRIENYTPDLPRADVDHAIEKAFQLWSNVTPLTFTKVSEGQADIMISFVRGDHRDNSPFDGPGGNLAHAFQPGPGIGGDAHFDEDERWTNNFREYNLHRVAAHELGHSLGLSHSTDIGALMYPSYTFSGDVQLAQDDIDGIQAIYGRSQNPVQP
Protocol: The catalytic domain of human collagenase-1 was expressed as a fusion protein with ubiquitin in E. coli (see Gehring, E. R., J Biol. Chem., 1995, 270, 22507). After purification of the fusion protein, the fibroblast collagenase-1 catalytic domain (HFC) was released either by treatment with purified, active stromelysin-1 (1:50 wlw ratio), which generated nearly 100% N-terminal Phe1, or by autoprocessing the concentrated collagenase-1 fusion and then incubating at 37° C. for 1 hour. Final purification was completed using zinc chelate chromatography.
as §1, §2, §3, §4

[2] = target: human progelatinase A (GelA) (Homo sapiens, UniProt P08253); test: In vitro MMP inhibition assay (hydrolysis of fluorogenic MCA peptide substrate), gelatinase A
Chain of human progelatinase A (GelA) (P08253 110-446 limits assumed): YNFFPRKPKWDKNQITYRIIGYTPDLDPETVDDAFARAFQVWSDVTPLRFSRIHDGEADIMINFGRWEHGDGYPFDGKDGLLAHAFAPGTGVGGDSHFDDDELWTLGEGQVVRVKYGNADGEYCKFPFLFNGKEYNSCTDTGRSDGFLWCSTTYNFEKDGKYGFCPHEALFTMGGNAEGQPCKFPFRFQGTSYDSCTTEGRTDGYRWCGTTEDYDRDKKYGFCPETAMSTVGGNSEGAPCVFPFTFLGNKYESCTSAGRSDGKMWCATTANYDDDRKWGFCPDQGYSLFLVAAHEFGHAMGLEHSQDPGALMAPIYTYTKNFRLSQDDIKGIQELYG
Protocol: The catalytic and fibronectin-like portion of human progelatinase A (GelA) was expressed as a fusion protein with ubiquitin in E. Coli. Assays were carried out on autocatalytically activated material.
as §1, §2, §3, §4

[3] = target: T3, human collagenase-3 (Coll3) (Homo sapiens, UniProt P45452); test: In vitro MMP inhibition assay (hydrolysis of fluorogenic MCA peptide substrate), collagenase-3; settings: Table 1; Ki,app; MCA peptide substrate 10 μM, 37° C., pH 7.5, 2% DMSO
T3 construct: catalytic domain liberated with APMA
Protocol: The propeptide and catalytic domain of human collagenase-3 (Coll3) was expressed in E. coli as an N-terminal fusion protein with ubiquitin. After purification of the fusion from inclusion bodies, the catalytic domain was liberated by treatment with 2 mM APMA at room temperature overnight. Final purification was completed using copper chelate chromatography.
as §1, §2, §3, §4

[4] = Table 1, Ki,app, MCA peptide substrate 10 μM, 37° C., pH 7.5, 2% DMSO, read-out: Sin Ki
[5] = Table 1, Ki,app, MCA peptide substrate 10 μM, 37° C., pH 7.5, 2% DMSO, read-out: Gel A

Chain of human stromelysin (Sln) (P08254 100-272 limits assumed): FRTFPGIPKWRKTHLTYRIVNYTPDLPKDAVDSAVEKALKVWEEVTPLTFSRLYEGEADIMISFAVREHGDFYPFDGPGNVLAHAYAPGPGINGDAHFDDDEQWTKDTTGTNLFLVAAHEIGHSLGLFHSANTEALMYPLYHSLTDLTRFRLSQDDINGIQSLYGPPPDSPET

SMILES: CSC(C)(C)[C@@H](NS(=O)(=O)c1ccc(Oc2ccc(Cl)cc2)cc1)C(=O)NO [Example 9b, 2(S)--N-hydroxy-3-methyl-3-methylsulfanyl-2-[(4-(4-chlorophenoxy)benzenesulfonyl)amino]butanamide]
Ki (human stromelysin (Sln); [4]): 1.5 nM | Ki (Human matrilysin (Matr)): 115 nM | Ki [1]: 30 nM | Ki [2, 5]: 0.065 nM | Ki [3]: 0.042 nM

SMILES: CC(C)(C)C(NS(=O)(=O)c1ccc(Oc2ccc(F)cc2)cc1)C(=O)NO (stereo in doubt) [Example 9l, 2(S)--N-hydroxy-3,3-dimethyl-2-[(4-(4-fluorophenoxy)benzenesulfonyl)-amino]butanamide]
Ki (human stromelysin (Sln); [4]): 1.8 nM | Ki (Human matrilysin (Matr)): 120 nM | Ki [1]: 30 nM | Ki [2, 5]: 0.109 nM | Ki [3]: 0.059 nM

SMILES: CC(C)(C)[C@H](NS(=O)(=O)c1ccc(Oc2ccccc2)cc1)C(=O)NO [Example 9k, 2(S)--N-hydroxy-3,3-dimethyl-2-[(4-phenoxybenzenesulfonyl)-amino]butanamide]
Ki (human stromelysin (Sln); [4]): 4.2 nM | Ki (Human matrilysin (Matr)): 376 nM | Ki [1]: 53 nM | Ki [2, 5]: 0.091 nM | Ki [3]: 0.057 nM

Other lines, results leading:

Ki (human stromelysin (Sln); [4]): 1 nM | Ki (human stromelysin (Sln); Table 2, comparative example, read-out: STROMELYSIN Ki): 1 nM | Ki (Human matrilysin (Matr)): 93 nM | Ki [1]: 21 nM | Ki [2, 5]: 0.09 nM | Ki ([2]; Table 2, comparative example, gelatinase A, read-out: GELATINASE Kj): 0.09 nM | Ki [3]: 0.034 nM
SMILES: CC(C)(C)C(NS(=O)(=O)c1ccc(Oc2ccc(Cl)cc2)cc1)C(=O)NO (stereo in doubt) [Example 9m, 2(S)--N-hydroxy-3,3-dimethyl-2-[(4-(4-chlorophenoxy)benzenesulfonyl)amino]butanamide]

Ki (human stromelysin (Sln); [4]): 71 nM | Ki (Human matrilysin (Matr)): 2270 nM | Ki [1]: 960 nM | Ki [2, 5]: 5.1 nM | Ki [3]: 4.6 nM
SMILES: CC(C)(C)[C@H](NS(=O)(=O)c1ccc(Oc2ccccn2)cc1)C(=O)NO [Example 10c]

Source: US5985900A, “Metalloproteinase inhibitors, pharmaceutical compositions containing them and their pharmaceutical uses” (Agouron Pharmaceuticals, Inc., priority 1998, dated 1999)
